Source: US20250360171A1, “CHEMOGENETICALLY GATED ION CHANNELS AND USE THEREOF” (TECHNION RESEARCH & DEVELOPMENT FOUNDATION LIMITED, priority 2023, published 2025)

Legend:
[1] = system: cardiac cell sheets expressing SthK and Rm3D; experiment: Reentrant arrhythmia in cardiac cell sheets expressing SthK and Rm3D, optical mapping; format: cell-based, human
Source text: In order to express both the DREADD and the channel in the membrane of cardiomyocytes a vector encoding a single transcript was generated. The open reading frame for SthK was cloned downstream of the chicken B-actin promoter. Instead of a stop codon, at the end of SthK a P2A cleavable peptide was encoded followed by the Rm3D receptor in frame. The result is a reading frame (SEQ ID NO: 4) encoding an 874 amino acid construct (SEQ ID NO: 8) that is co-translationally cleaved near the end of the P2A peptide to produce separate SthK and Rm3D proteins from a single transcript.
Cardiac cell sheets (CCSs) were generated as a 2D tissue model from the transfected iPSC-CMs and the CCSs were loaded with an optical voltage-dependent dye and mapped using a high-speed EMCCD camera. […] Reentrant arrhythmias were induced by transient tachypacing, and the resultant arrhythmias were stable within the tissue (FIG. 7A). […] This was seen as an inability to excite the cells even with significant electrical stimulation. […] Furthermore, it was shown that a single washout of the drug led to rapid recovery of electrical excitability by electrical pacing (within 30-90 seconds of washout) and the spontaneous resumption of a normal rhythm (sinus) within 2-5 minutes, as would be expected after defibrillation/cardioversion (FIG. 7C). Thus, the arrythmias were successfully terminated upon application of CNO, and normal electrical activity returned almost immediately after washout.

[2] = system: CMs engineered to express the compound channel; experiment: Coculture model: engineered CCS between two wild-type CCSs, reentrant arrhythmia; format: cell-based, human; conditions: 5 nM
Source text: (§1) To further illustrate the potential of this technology a coculture model of wild type CMs and CMs engineered to express the compound channel was generated (FIG. 8). In this model, only the CMs in the CCS between the two wild-type CCSs express the compound channel that is responsive to CNO. Reentrant arrhythmias were induced that spanned the whole model. […] As such, the arrhythmia became relegated to a single side of the model. That is an arrhythmia with a core in one CCS (for example the right one) become relegate to just that CCS upon application of CNO, while the other (left) CCS remained unaffected. It was further shown that the left CCS could be electrically paced, and conduction was successful until the wave front reaches the unexcitable engineered CMs. […] Thus, it is clear that native CMs are unaffected by CNO, but the genetically engineered CMs can be robustly ‘silenced’ by the application of CNO at very low concentrations (2-5 nM). Further, arrhythmias are succinctly terminated as a result of this silencing. Upon washout normal electrical activity resumed in the engineered CMs.

[3] = system: native CMs; experiment: Coculture model: native (wild type) CMs; format: cell-based, human; conditions: 2-5 nM
Source text: as §1

[4] = target: T1, PSAM4-5HT3-HC channel (Homo sapiens, UniProt P36544, L131G/M226I/Q139L/T225I/Y217F); experiment: Voltage-clamp / membrane potential recordings of PSAM4-5HT3-HC-expressing hiPSC-CMs; format: cell-based; conditions: for effect on Varenicline-induced depolarizing current: picrotoxin 100 uM, partial antagonist of 5HT3-IPD
T1 construct: expressed in transfected cells
T1 sequence (P36544 with tags, fused parts or gaps L131G/Q139L/Y217F/T225I/M226I): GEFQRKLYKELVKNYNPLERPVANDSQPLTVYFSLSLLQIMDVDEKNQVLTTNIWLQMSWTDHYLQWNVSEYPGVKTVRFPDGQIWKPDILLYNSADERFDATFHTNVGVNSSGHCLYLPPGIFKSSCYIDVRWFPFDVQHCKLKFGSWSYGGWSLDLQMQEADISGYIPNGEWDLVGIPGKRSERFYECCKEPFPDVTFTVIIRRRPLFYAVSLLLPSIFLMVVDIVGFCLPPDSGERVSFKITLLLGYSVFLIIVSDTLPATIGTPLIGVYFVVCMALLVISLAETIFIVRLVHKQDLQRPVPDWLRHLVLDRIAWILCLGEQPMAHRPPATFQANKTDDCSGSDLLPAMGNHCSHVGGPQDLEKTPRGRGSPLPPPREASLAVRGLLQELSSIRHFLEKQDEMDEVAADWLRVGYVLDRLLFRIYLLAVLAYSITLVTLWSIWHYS
Source text: The synthetic chemogenetic channel PSAM4-5HT3-HC was created by fusing a mutated α7-nicotinic acetylcholine receptor (PSAM4, engineered to bind the anti-smoking drug Varenicline at sub-therapeutic concentrations) with the ion pore-domain (IPD) of the serotonin receptor 3A (5HT3) with additional mutations made for high conductance (HC) (SEQ ID NO: 12). This molecule was disclosed in Magnus, et al., “Ultrapotent chemogenetics for research and potential clinical applications”, Science, 2019 April 12;364 (6436), hercin incorporated by reference in its entirety. This molecule has only ever been used in neurons; however, it was hypothesized that it could also be employed in other electrically active cells. Specifically, it was hypothesized that expressing this chemogenetic channel in cardiomyocytes would permit dose-dependent modulation of their excitable properties; with weak depolarizing currents leading to increased automaticity, and larger currents causing depolarization-induced electrical silencing.
To test these hypotheses, healthy-donor human induced pluripotent stem cells (hiPSCs) were transfected with a non-viral, randomly integrating, transposon to create a stably engineered line constitutively expressing the PSAM4-5HT3-HC channel together with cGFP (FIG. 1).

[5] = system: control unmodified hiPSC-CMs; experiment: Patch-clamp of control unmodified hiPSC-CMs; format: cell-based, human
Description: At higher doses (10 nM), spontaneous generation of action potentials (Aps) ceased (FIG. 2B). This suppression of excitability likely results from the significant membrane diastolic depolarization (−64±7 mV to −10±4 mV; p<0.0001; FIG. 2C) due to the large Varenicline-induced inward current (−6.8±3.2 pA/pF; p<0.01; FIG. 2C).

[6] = system: PSAM4-5HT3-hiPSC-CCS; experiment: Optical mapping of PSAM4-5HT3-hiPSC-CCS tissue model; format: cell-based, human; conditions: 5-30 nM
Source text: To assess the translational potential of these findings, a hiPSC-derived cardiac cell-sheet (hiPSC-CCS) tissue model generated from PSAM4-5HT3-hiPSC-CMs was utilized (FIG. 3A). […] This augmented automaticity was the result of Varenicline-induced depolarizing currents in pacemaker cells driving activity of the cultures.

[7] = system: control, non-transfected, hiPSC-CCSs; experiment: Optical mapping of control, non-transfected hiPSC-CCSs; format: cell-based, human; conditions: any dose
[8] = system: PSAM4-5HT3-hiPSC-CMs / control hiPSC-CMs co-culture; experiment: Co-culture of PSAM4-5HT3-cGFP-hiPSC-CMs beside control hiPSC-CMs, optical mapping; format: cell-based, human
Description: We next created a co-culture model where the PSAM4-5HT3-cGFP-hiPSC-CMs were seeded beside control hiPSC-CMs (FIG. 4A).
Next, it was tested whether this chemogenetic approach could suppress tissue automaticity and excitability when using higher concentrations of Varenicline (100 nM), as it did in single cells, albeit at lower concentration. This dosing discrepancy probably stems from the more limited drug diffusion and the presence of stronger electrotonic coupling (attenuating Varenicline-induced depolarization) at the tissue level.

[9] = system: rat hearts transplanted with chemogenetic hiPSC-CMs; experiment: Optical mapping of Langendorff-perfused rat hearts engrafted with chemogenetic hiPSC-CMs; format: in vivo; conditions: 30 nM, adenosine-induced bradycardia, 7-10 days after transplantation, ex-vivo perfusion
Source text: (§2) Finally, chemogenetic hiPSC-CMs were transplanted into rat hearts. After 7-10 days, hearts were harvested, perfused ex-vivo using a custom-made Langendorff apparatus and optically mapped. Bradycardia was induced using adenosine.

[10] = system: control (non-transplanted) rat hearts; experiment: Optical mapping of Langendorff-perfused control (non-transplanted) rat hearts; format: in vivo; conditions: four control hearts, 30 nM with adenosine
Source text: as §2

Compound: C[N+]1([O-])CCN(C2=Nc3cc(Cl)ccc3Nc3ccccc32)CC1 [CNO, clozapine-N-oxide]
- electrical activity of the CCS ([1]; 2-5 nM): rapid inactivation (silencing)
- termination of existing reentrant arrhythmias ([1]; 2-5 nM): sufficient to completely terminate existing arrhythmias
- time to recovery of electrical excitability by electrical pacing after washout ([1]; single washout): 30 to 90 s
- time to spontaneous resumption of a normal rhythm (sinus) after washout ([1]; single washout): 2 to 5 min
- conduction of arrhythmia across engineered cells [2]: could no longer cross the engineered cells
- effect on native CMs [3]: unaffected

Compound: c1cnc2cc3c(cc2n1)[C@@H]1CNC[C@H]3C1 [Varenicline]
- spontaneous generation of action potentials ([4]; 10 nM): ceased
- membrane diastolic potential after Varenicline ([4]; depolarization from −64±7 mV, p<0.0001, 10 nM (FIG. 2)): −10±4 mV
- Varenicline-induced inward current ([4]; p<0.01, FIG. 2C): −6.8±3.2 pA/pF
- Varenicline-induced depolarizing currents ([4]; voltage-clamp, even at low concentrations (1 nM)): robust Varenicline-induced depolarizing currents
- response to Varenicline [5]: No response
- cultures' activation frequency [6]: dose-dependent increase
- chronotropic effects [7]: no chronotropic effects
- excitability of the region containing non-transfected cells ([8]; 100 nM): retained its excitable properties
- spontaneous activity of the co-cultures ([8]; 100 nM): significantly slowed
- electrical activity in the PSAM4-5HT3-hiPSC-CMs area ([8]; 100 nM, in some specimens): complete silencing of electrical activity
- origin of spontaneous activity (pacemaker area) ([8]; baseline origin in control tissue): shifted the pacemaker area to the PSAM4-5HT3-HC tissue
- automaticity of co-culture ([8]; escalating doses): augmented automaticity in a dose-dependent manner
- increase of spontaneous rhythm over baseline ([8]; rhythm arising from the PSAM4-5HT3-hiPSC-CMs): > 6 fold
- hearts developing ectopic ventricular activity from area of cell transplantation [9]: four out of five
- shift in the activation pattern [10]: did not occur

Compound: picrotoxin
- effect on Varenicline-induced depolarizing current [4]: suppressing the depolarizing current
- effect on Varenicline-induced depolarizing current ([4]; listed as Picrotoxin): partially reversed
